Tests used:
FSH levels in the plasma = details: depending on its dose; Bicikova 1993; cited from earlier work
[1] = system: epididymal and prostatic 5α-reductase; details: Monsalve 1977; Starka 1989; cited from earlier work
Sertoli cells = assay: inhibin-B secretion by Sertoli cells (inhibin-B dimer assay, Serotec); format: cell-based, Wistar rats
Method: The in-vitro stimulating effect on inhibin-B generation was measured using inhibin-B dimer assays by Serotec, Oxford, UK. […] The difference between the released inhibin-B quantity with and without the test substance expresses the efficacy of the respective test substance.
The substances were tested for their stimulating effect on inhibin-B secretion in an in-vitro model using Sertoli cells originating from Wistar rats and cultivated for up to 4 days.
Wistar rats that were 18 days old were killed using CO2; their testicles were collected and mechanically chopped up using a surgical knife. The resulting cell pulp was enzymatically disintegrated with collagenase II, hyaluronidase, and DNase using the following method: The cell pulp was digested for 15 minutes at 37° C. in 20 ml of Dulbecco's Modified Essential Medium (DMEM) containing 20 mg of collagenase II; subsequently, it was sedimented for 7 minutes at room temperature. The supernatant was discarded. The remaining pellet was resuspended in DMEM, then sedimented again for 7 minutes. The next steps were a second decomposition for 30 minutes at 37° C. in 20 ml of DMEM containing 40 mg of collagenase II, 40 mg of hyaluronidase, and 0.1 mg of DNase, and a centrifugation step at 500 rpm. After washing in DMEM without additives and another centrifugation step, the pellet was a third time enzymatically disintegrated for 30 minutes at 37° C. in 20 ml of DMEM containing 40 mg of collagenase II, 40 mg of hyaluronidase and 0.1 mg of DNase, then centrifuged at 1,000 rpm. The pellet was then resuspended, washed once in DMEM without additives, and finally sublimated with 100 U/ml of penicillin, 100 μg/ml of streptomycin, 5 μg/ml of human transferrin, 2 μg/ml of insulin, 50 ng/ml of vitamin A (all from Sigma Co.), 200 ng/ml of vitamin E (Merck Co.), and 3 mg/ml of cytosine arabinoside (Sigma Co.) (DMEM-Z) and sowed in 24-well microtiter plates. After 48 hours, the cultivated cells were given hypotonic treatment using 20 mM of Tris-HCl (pH 7.4) to remove residual gametes, then the medium was changed into DMEM-Z.
1 ml of biological sample containing 10^6 Sertoli cells in 990 ml of DMEM-Z and test substances at a concentration range from 0.1 nM to 1 μM, each dissolved in 10 μl of absolute ethanol (1% w/v of the total batch) was incubated for 48 hours at 34° C. and 5% CO2. The culture supernatant was then decanted from the cells, frozen at −20° C. and kept until the inhibin-B level was determined.
0.1 ml of culture supernatant was mixed with 0.05 ml of SDS of the inhibin-B assay (Serotec, Oxford, UK) in 1.8 ml Eppendorf reaction vessels and heated for 3 minutes to 100° C. After the batch had cooled down, 0.1 ml of assay diluent and 0.05 ml of a 6% H2O2 solution were added, intermixed, then incubated for 30 minutes at room temperature.
80 ml of the above reaction mixture and 80 ml of the 7 inhibin-B standards for creating a calibration curve contained in the assay were pipetted into the wells of the microtiter plate contained in the assay and allowed to incubate at room temperature overnight. Finally the wells were washed 3 times with an inhibin washing buffer.
The content of the alkaline phosphatase-conjugated antibody against human inhibin-B contained in the assay was taken up in 6 ml of assay diluent, and 0.05 ml of this solution were pipetted into the wells and incubated for 3 hours at room temperature. […]

Row | Compound | effect on FSH levels in the plasma (FSH levels in the plasma) | inhibition of epididymal and prostatic 5α-reductase [1] | inhibin-B levels expressed from the culture supernatant as compared to the control tests (Sertoli cells; Sertoli cell culture, incubation time of 44 and 52 hours, FIG. 2 (EpiT 1 uM)) | increase of inhibin-B levels: concentration range of particularly striking effect (Sertoli cells; epitestosterone concentrations in the range from 10 nM to 1 pM) | inhibin-B secretion after adding steroids from natural sources (Sertoli cells; Sertoli cell culture)
1 | C[C@]12CC[C@H]3[C@@H](CCC4=CC(=O)CC[C@@]43C)[C@@H]1CC[C@H]2O [17α-hydroxy-4-androstene-3-one] | either an inhibiting or an increasing effect | inhibits | significantly increased | particularly striking | 
2 | C[C@]12CCC(=O)C[C@@H]1CC[C@@H]1[C@@H]2CC[C@]2(C)[C@@H](O)CC[C@@H]12 [dihydrotestosterone] |  |  |  |  | not influenced
3 | CC(=O)[C@H]1CC[C@H]2[C@@H]3CCC4=CC(=O)CC[C@]4(C)[C@H]3CC[C@]12C [progesterone] |  |  |  |  | not influenced
4 | C[C@]12CC[C@H]3[C@@H](CCC4=CC(=O)CC[C@@]43C)[C@@H]1CC[C@@H]2O [testosterone] |  |  |  |  | not influenced

From US6432939B1, “17a-hydroxy-4-androstene-3-one and derivatives thereof” (priority 1999, dated 2002)
